Test results from US7868026B2, “Therapeutic compounds” (Pfizer Inc., priority 2005, dated 2011).
Where two headings read alike, the source gives them in different places.

Legend:
Format in all cases: biochemical
[1] = molecular target: T1, CYP3A4 (Homo sapiens, UniProt P08684); assay: Determination of IC50 against CYP3A4 by measurement of inhibition of testosterone metabolism (human liver microsomes, 6-β-OH-testosterone by LC-MS/MS); design: 0.1 mg/mL human liver microsomes; details: read-out: IC50 (Testo.)
Outline: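 Human liver microsomes (0.1 mg/mL) incubated with 25 μM testosterone and 1 mM NADPH in 100 mM potassium phosphate, pH 7.4, for eight minutes. 6-β-OH-testosterone measured by LC-MS/MS in MRM mode against an internal standard and quantified from a metabolite standard curve.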

[2] = molecular target: T1, CYP3A4; assay: Determination of IC50 against CYP3A4 by measurement of inhibition of midazolam metabolism (human liver microsomes, 1-hydroxymidazolam by LC-MS/MS); design: 0.1 mg/mL human liver microsomes; details: 2 μM midazolam, 0.1 mg/mL human liver microsomes
Outline: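 Human liver microsomes (0.1 mg/mL) incubated 8 min with 2 μM midazolam and 1 mM NADPH in 100 mM potassium phosphate, pH 7.4. 1-Hydroxymidazolam quantified by LC-MS/MS (MRM) as peak area ratio to internal standard against a metabolite standard curve.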

[3] = molecular target: T1, CYP3A4; assay: Determination of compound Kiapp against recombinant CYP3A4 enzyme (BFC fluorescent substrate)
Outline: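 Recombinant CYP3A4 (5.5 or 8 nM, with or without b5 depending on source) pre-incubated with inhibitor ≥30 min at room temperature in 100 mM sodium phosphate pH 7.0, 5 mM TCEP, 2% DMF. Reaction started with 200 uM NADPH and 5 uM BFC; initial fluorescence rates over 5 min fitted to Morrison tight-binding (non-partial) or Szedlacsek (partial) equations for Kiapp.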

[4] = Baculo. enzyme preparation, read-out: Kiapp (BFC, Baculo.)
[5] = Super. enzyme preparation, read-out: Kiapp (BFC, Super.)

T1 sequence (P08684 whole entry): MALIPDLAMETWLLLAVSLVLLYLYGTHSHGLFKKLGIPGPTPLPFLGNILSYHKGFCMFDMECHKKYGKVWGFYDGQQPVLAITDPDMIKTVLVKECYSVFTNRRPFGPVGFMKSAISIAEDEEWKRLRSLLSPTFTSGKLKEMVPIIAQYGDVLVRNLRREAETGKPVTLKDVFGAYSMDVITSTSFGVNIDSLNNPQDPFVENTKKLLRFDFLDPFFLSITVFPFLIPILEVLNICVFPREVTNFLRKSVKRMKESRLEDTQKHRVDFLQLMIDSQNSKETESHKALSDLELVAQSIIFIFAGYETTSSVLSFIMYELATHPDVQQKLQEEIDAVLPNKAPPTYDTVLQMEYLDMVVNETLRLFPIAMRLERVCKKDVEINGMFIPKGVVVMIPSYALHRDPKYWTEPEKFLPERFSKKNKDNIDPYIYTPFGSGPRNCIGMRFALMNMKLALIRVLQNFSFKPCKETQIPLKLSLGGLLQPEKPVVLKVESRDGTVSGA

| Compound | IC50 [1] [nM] | IC50 [2] [nM] | Ki [3, 4] [nM] | Ki [3, 5] [nM] |
| --- | --- | --- | --- | --- |
| CN(CCc1ccccc1)C(=O)c1ccccc1S(=O)(=O)Nc1cccnc1 [Example 68, N-methyl-N-(2-phenylethyl)-2-[(pyridin-3-ylamino)sulfonyl]benzamide] | 36 | 17 | 116 | – |
| CCCCNC(=O)c1ccccc1S(=O)(=O)Nc1cncc(C#N)c1 [Example 24, N-butyl-2-{[(5-cyanopyridin-3-yl)amino]sulfonyl}benzamide] | > 750 | 567 | > 1000 | – |
| COc1cncc(NS(=O)(=O)c2ccccc2C(=O)NCCc2cc(F)ccc2F)c1 [Example 197, N-[2-(2,5-difluorophenyl)ethyl]-2-{[(5-methoxypyridin-3-yl)amino]sulfonyl}benzamide] | 18 | 4 | 69.5 | 20.1 |
| O=C(c1ccccc1S(=O)(=O)Nc1cncc(Br)c1)N1CCCCC1 [Example 392, N-(5-bromopyridin-3-yl)-2-(piperidin-1-ylcarbonyl)benzenesulfonamide] | 9 | 65 | > 1000 | 320 |
| CCCN(CC1CC1)C(=O)c1ccccc1S(=O)(=O)N(C)c1cccnc1 [Example 337, N-(cyclopropylmethyl)-2-{[methyl(pyridin-3-yl)amino]sulfonyl}-N-propylbenzamide] | 64 | 88 | 285 | 61.3 |
| Cc1cccc(CNC(=O)c2ccccc2S(=O)(=O)Nc2cccnc2)c1 [Example 80, N-(3-methylbenzyl)-2-[(pyridin-3-ylamino)sulfonyl]benzamide] | 71 | 25 | 206 | 4.1 |
| COc1cncc(NS(=O)(=O)c2ccccc2C(=O)NCc2ccc(F)c(C(F)(F)F)c2)c1 [Example 312, N-[4-fluoro-3-(trifluoromethyl)benzyl]-2-{[(5-methoxypyridin-3-yl)amino]sulfonyl}benzamide] | 12 | 13 | 8.6 | 3.5 |
| COc1cncc(NS(=O)(=O)c2ccccc2C(=O)NCCCc2ccccc2OC)c1 [Example 234, N-[3-(2-methoxyphenyl)propyl]-2-{[(5-methoxypyridin-3-yl)amino]sulfonyl}benzamide] | > 750 | > 750 | 37.9 | 8.1 |
| Cc1ccccc1CCNC(=O)c1ccccc1S(=O)(=O)N(C)c1cccnc1 [Example 325, N-[2-(2-methylphenyl)ethyl]-2-{[methyl(pyridin-3-yl)amino]sulfonyl}benzamide] | 84 | 119 | 35 | 8.6 |
